Source: PubChem BioAssay AID248 (DTP/NCI, 2004)
Values joined by “and” are separate entries in the source; they are usually repeats but may differ in a detail not shown here. Equal values may be shown once. Inconclusive results and toxic doses are left out. No stated cut-off is given here; in the data, active means T/C of 150% or more; inactive means T/C below 125%.

System: L1210 leukemia ip in BDF1 mice, survival T/C
Assay: NCI In Vivo Anticancer Drug Screen. Data for tumor model L1210 Leukemia (intraperitoneal) in B6D2F1 (BDF1) mice
Conditions: endpoint: mean survival time, higher = longer survival
Method in brief: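 Value reflects the ratio of survival in compound-treated mice to survival in vehicle-treated controls, with both groups carrying the same transplanted tumor.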

[1] = dose: 200.0 mg/kg/injection, schedule: Q04DX002 (ip), vehicle: Klucel (hydroxypropylcellulose) (HPC)
[2] = dose: 100.0 mg/kg/injection, schedule: Q04DX003 (ip), vehicle: saline with Tween-80
[3] = dose: 200.0 mg/kg/injection, schedule: Q04DX003 (ip), vehicle: saline with Tween-80
[4] = dose: 400.0 mg/kg/injection, schedule: Q04DX003 (ip), vehicle: saline with Tween-80
[5] = dose: 100.0 mg/kg/injection, schedule: Q01DX001 (ip), vehicle: saline with Tween-80
[6] = dose: 200.0 mg/kg/injection, schedule: Q01DX001 (ip), vehicle: saline with Tween-80
[7] = dose: 400.0 mg/kg/injection, schedule: Q01DX001 (ip), vehicle: saline with Tween-80
[8] = dose: 75.0 mg/kg/injection, schedule: Q01DX001 (ip), vehicle: other
[9] = dose: 100.0 mg/kg/injection, schedule: Q01DX009 (ip), vehicle: saline with Tween-80
[10] = dose: 100.0 mg/kg/injection, schedule: Q04DX002 (ip), vehicle: saline with Tween-80
[11] = dose: 200.0 mg/kg/injection, schedule: Q01DX009 (ip), vehicle: saline with Tween-80
[12] = dose: 200.0 mg/kg/injection, schedule: Q04DX002 (ip), vehicle: saline with Tween-80
[13] = dose: 400.0 mg/kg/injection, schedule: Q04DX002 (ip), vehicle: saline with Tween-80
[14] = dose: 100.0 mg/kg/injection, schedule: Q04DX002 (ip), vehicle: Klucel (hydroxypropylcellulose) (HPC)
[15] = dose: 100.0 mg/kg/injection, schedule: Q01DX001 (ip), vehicle: Klucel (hydroxypropylcellulose) (HPC)
[16] = dose: 200.0 mg/kg/injection, schedule: Q01DX001 (ip), vehicle: Klucel (hydroxypropylcellulose) (HPC)
[17] = dose: 400.0 mg/kg/injection, schedule: Q01DX001 (ip), vehicle: Klucel (hydroxypropylcellulose) (HPC)
[18] = dose: 25.0 mg/kg/injection, schedule: Q04DX002 (ip), vehicle: saline
[19] = dose: 50.0 mg/kg/injection, schedule: Q04DX002 (ip), vehicle: saline
[20] = dose: 50.0 mg/kg/injection, schedule: Q01DX009 (ip), vehicle: saline with Tween-80

Measured: T/C

O=C1OC2CCCCC2/C1=C/N1CCCCC1 (stereo not drawn)
inactive: dose: 5.0 mg/kg/injection, schedule: Q04DX002 (ip), vehicle: Klucel (hydroxypropylcellulose) (HPC) 92 % of control | dose: 10.0 mg/kg/injection, schedule: Q04DX002 (ip), vehicle: Klucel (hydroxypropylcellulose) (HPC) 102 % of control | dose: 20.0 mg/kg/injection, schedule: Q04DX002 (ip), vehicle: Klucel (hydroxypropylcellulose) (HPC) 107 % of control | dose: 40.0 mg/kg/injection, schedule: Q04DX002 (ip), vehicle: Klucel (hydroxypropylcellulose) (HPC) 93 % of control | dose: 50.0 mg/kg/injection, schedule: Q04DX002 (ip), vehicle: Klucel (hydroxypropylcellulose) (HPC) 103 % of control | [1] 102 % of control and 103 % of control | dose: 400.0 mg/kg/injection, schedule: Q04DX002 (ip), vehicle: Klucel (hydroxypropylcellulose) (HPC) 88 % of control

CCCCCCCCCCCCNc1ccccn1
inactive: [2] 88 % of control | [3] 94 % of control | [4] 96 % of control

O=C(/C(=C\c1ccc(Cl)c(Cl)c1)c1ccccc1)c1ccc(O)cc1
inactive: dose: 100.0 mg/kg/injection, schedule: Q01DX001 (ip), vehicle: carboxymethylcellulose (CMC) 90 % of control | dose: 200.0 mg/kg/injection, schedule: Q01DX001 (ip), vehicle: carboxymethylcellulose (CMC) 101 % of control | dose: 400.0 mg/kg/injection, schedule: Q01DX001 (ip), vehicle: carboxymethylcellulose (CMC) 95 % of control

CNC(=O)C(C)(C)C
inactive: [5] 100 % of control | [6] 103 % of control | [7] 100 % of control

Cc1cc(=O)oc2cc(OCc3ccccc3)cc(O)c12
inactive: [8] 103 % of control | dose: 150.0 mg/kg/injection, schedule: Q01DX001 (ip), vehicle: other 108 % of control | dose: 300.0 mg/kg/injection, schedule: Q01DX001 (ip), vehicle: other 108 % of control

COc1ccc2c(c1)CCC(C)(C#N)C2=O (stereo not drawn)
inactive: dose: 100.0 mg/kg/injection, schedule: Q01DX009 (ip), vehicle: saline sonified 91 % of control | dose: 200.0 mg/kg/injection, schedule: Q01DX009 (ip), vehicle: saline sonified 96 % of control | dose: 400.0 mg/kg/injection, schedule: Q01DX009 (ip), vehicle: saline sonified 90 % of control

CCc1ccccc1NC(=O)Oc1ccc(SC)cc1
inactive: [5] 102 % of control | [9] 97 % of control and 99 % of control | [10] 93 % of control and 94 % of control | [6] 98 % of control | [11] 97 % of control and 89 % of control | [12] 96 % of control and 97 % of control | [7] 93 % of control | [13] 96 % of control and 107 % of control | [4] 90 % of control

O=C(c1ccco1)C(O)c1ccco1 (stereo not drawn)
inactive: [14] 96 % of control | [1] 104 % of control

O=C(c1ccccc1)C(Cl)C(=O)c1ccccc1
inactive: dose: 12.5 mg/kg/injection, schedule: Q04DX003 (ip), vehicle: Klucel (hydroxypropylcellulose) (HPC) 94 % of control | dose: 25.0 mg/kg/injection, schedule: Q04DX003 (ip), vehicle: Klucel (hydroxypropylcellulose) (HPC) 115 % of control | dose: 50.0 mg/kg/injection, schedule: Q04DX003 (ip), vehicle: Klucel (hydroxypropylcellulose) (HPC) 96 % of control | [15] 98 % of control | dose: 100.0 mg/kg/injection, schedule: Q04DX003 (ip), vehicle: Klucel (hydroxypropylcellulose) (HPC) 100 % of control | [16] 97 % of control | [17] 95 % of control

CCCCC(CCCC)NCCOC(=O)c1ccc(N)cc1
inactive: [8] 102 % of control

CC(=O)OC1CC2(CO2)C2CC=C(C)C2C2OC(=O)C(C)C12 (stereo not drawn)
inactive: dose: 12.5 mg/kg/injection, schedule: Q04DX002 (ip), vehicle: saline 110 % of control | [18] 100 % of control | [19] 95 % of control | [14] 90 % of control | [1] 100 % of control

CCOC(=O)C1C2/C=C/CCCCC21 (stereo not drawn)
inactive: [10] 105 % of control | [12] 112 % of control | [13] 98 % of control

COc1ccc(CCN)cc1
inactive: [18] 101 % of control | [19] 97 % of control | dose: 100.0 mg/kg/injection, schedule: Q04DX002 (ip), vehicle: saline 97 % of control and 109 % of control

O=C(Nc1ccc(C(=O)O)cc1)Nc1cccc(F)c1
inactive: dose: 50.0 mg/kg/injection, schedule: Q01DX009 (ip), vehicle: Klucel (hydroxypropylcellulose) (HPC) 102 % of control | dose: 100.0 mg/kg/injection, schedule: Q01DX009 (ip), vehicle: Klucel (hydroxypropylcellulose) (HPC) 111 % of control | [14] 95 % of control | [1] 98 % of control

CCC(C(=O)c1cccs1)C(O)(C(F)(F)F)C(F)(F)F (stereo not drawn)
inactive: [15] 102 % of control | [16] 97 % of control | [17] 94 % of control

COc1ccc(OC)c(CC=O)c1
inactive: dose: 100.0 mg/kg/injection, schedule: Q04DX003 (ip), vehicle: alcohol 97 % of control | dose: 200.0 mg/kg/injection, schedule: Q04DX003 (ip), vehicle: alcohol 101 % of control | dose: 400.0 mg/kg/injection, schedule: Q04DX003 (ip), vehicle: alcohol 103 % of control

CCCCCCCCCCCCCCC(F)C(=O)OCC1OC(CO)(OC2OC(CO)C(O)C(O)C2O)C(O)C1O (stereo not drawn)
inactive: dose: 25.0 mg/kg/injection, schedule: Q01DX009 (ip), vehicle: saline with Tween-80 98 % of control | [20] 100 % of control | [2] 107 % of control

COC(=O)C1c2ccccc2-c2ccc(N3C(=O)C=CC3=O)cc21 (stereo not drawn)
inactive: [2] 107 % of control | [3] 104 % of control | [4] 115 % of control

O=C1c2ccccc2C(=O)N1CC(O)CCl (stereo not drawn)
inactive: [20] 93 % of control | dose: 50.0 mg/kg/injection, schedule: Q04DX003 (ip), vehicle: saline with Tween-80 91 % of control | [9] 93 % of control | [2] 102 % of control | [11] 90 % of control | [3] 96 % of control

CCC1COP(=O)(c2ccccc2)OC1 (stereo not drawn)
inactive: dose: 100.0 mg/kg/injection, schedule: Q01DX001 (ip), vehicle: saline 103 % of control | dose: 200.0 mg/kg/injection, schedule: Q01DX001 (ip), vehicle: saline 103 % of control | dose: 400.0 mg/kg/injection, schedule: Q01DX001 (ip), vehicle: saline 100 % of control

O=S(=O)(OCC1C2CCC1CC2)c1ccccc1 (stereo not drawn)
inactive: dose: 100.0 mg/kg/injection, schedule: Q01DX009 (ip), vehicle: other 92 % of control | dose: 100.0 mg/kg/injection, schedule: Q04DX003 (ip), vehicle: other 104 % of control | dose: 200.0 mg/kg/injection, schedule: Q01DX009 (ip), vehicle: other 94 % of control | dose: 200.0 mg/kg/injection, schedule: Q04DX003 (ip), vehicle: other 94 % of control | dose: 400.0 mg/kg/injection, schedule: Q01DX009 (ip), vehicle: other 101 % of control | dose: 400.0 mg/kg/injection, schedule: Q04DX003 (ip), vehicle: other 89 % of control
